The target in one data set is T1, σ2 sites (Rattus norvegicus, UniProt Q5U3Y7).
T1 construct: Crude P2 membranes were prepared from guinea pig brain, rat brain, or rat liver; from tissue; host or cells: rat liver (crude P2 membranes)
T1 sequence (Q5U3Y7 1-176): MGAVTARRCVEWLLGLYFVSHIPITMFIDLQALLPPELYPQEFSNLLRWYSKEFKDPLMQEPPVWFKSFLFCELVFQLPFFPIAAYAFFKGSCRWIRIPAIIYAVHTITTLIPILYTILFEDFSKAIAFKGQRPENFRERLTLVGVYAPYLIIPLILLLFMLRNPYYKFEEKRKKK
The data set is described as follows: σ2 receptor competition binding.

Data set [1] has as its target T2, σ1 receptors (Cavia porcellus, UniProt Q60492).
T2 construct: Crude P2 membranes were prepared from guinea pig brain, rat brain, or rat liver; from tissue; host or cells: guinea pig brain (crude P2 membranes)
The experiment in a line: σ1 receptor competition binding. Also on record: species or system guinea pig. The following applies: read-out: σ1.

The next data set concerns the target T3, Dopamine (D2) receptors (Rattus norvegicus, UniProt P61169).
T3 construct: from tissue; host or cells: rat brain homogenate / P2 membranes
The experiment in a line: Dopamine D2 receptor competition binding ([3H](−)sulpiride). The following applies: rat brain homogenates, [3H](−)sulpiride; read-out: Dopamine (D2).

The target in data set [2] is PCP sites on NMDA receptors (Rattus norvegicus, UniProt P35439). The experiment in a line: PCP site competition binding ([3H]TCP). The following applies: rat brain homogenates, [3H]TCP; read-out: NMDA (PCP).
The next data set deals with 5-HT2 receptors (Rattus norvegicus, UniProt P14842). The data set is described as follows: 5-HT2 receptor competition binding ([3H]ketanserin). The following applies: rat brain homogenates, [3H]ketanserin; read-out: 5-HT2.
A further data set relates to rat red nucleus. The experiment in a line: Acute dystonic reaction after microinjection into the rat red nucleus. It counts as in vivo. The following applies: alone and against sigma agonists such as DTG.
Data set [3] has as its system σ1 receptors. The experiment in a line: Antisense oligodeoxynucleotide (i.c.v.), basal locomotor activity. It counts as in vivo, mouse. Conditions: i.c.v. antisense treatment, 30 min before the cocaine challenge.
Data set [4] has as its system σ1 receptors. The data set is described as follows: Antisense oligodeoxynucleotide (i.c.v.) against locomotor stimulatory effects of cocaine. The format is in vivo, mouse.
Data set [5] deals with σ1 receptors. The experiment in a line: Antisense oligodeoxynucleotide (i.c.v.) against cocaine-induced convulsions. It counts as in vivo, mouse.
Data set [6] concerns Male, Swiss Webster mice. The data set is described as follows: Effects of sigma ligands alone on baseline locomotor activity. It counts as in vivo. Conditions: 30 min; i.p. mg/kg: BD1008 1, BD1067 5, BD1047 30, LR172 5, BD1018 30, BD1063 30, LR132 30, LR176 10, YZ011 0.1, YZ027 1, YZ029 5.
Data set [7] has as its system Male, Swiss Webster mice. The data set is described as follows: Attenuation of cocaine-induced locomotor activity. It counts as in vivo. Conditions: same ligand doses as baseline test, 15 min before cocaine 10 mg/kg i.p.; 30 min; ANOVA.
Where [8] appears, read: Table 5, dopamine transporter ligands.
[9] abbreviates: Table 1, [3H]DTG plus dextrallorphan, rat liver, mean±SEM, minimum of two independent assays.
Setting [10] is: Table 4, second series, [3H]DTG plus dextrallorphan, rat liver.
Where [11] appears, read: Table 1, [3H](+)-pentazocine, guinea pig brain, mean±SEM, minimum of two independent assays.
Where [12] appears, read: Table 4, second series, [3H](+)-pentazocine, guinea pig brain.
The mark [13] stands for this setting: NYU sequences, 10 μg/5 μl i.c.v. on Days 1, 2 and 4, cocaine 60 mg/kg i.p. on Day 5.

Like-named read-outs stand apart in the source and are kept apart here.

T2 sequence (Q60492 whole entry): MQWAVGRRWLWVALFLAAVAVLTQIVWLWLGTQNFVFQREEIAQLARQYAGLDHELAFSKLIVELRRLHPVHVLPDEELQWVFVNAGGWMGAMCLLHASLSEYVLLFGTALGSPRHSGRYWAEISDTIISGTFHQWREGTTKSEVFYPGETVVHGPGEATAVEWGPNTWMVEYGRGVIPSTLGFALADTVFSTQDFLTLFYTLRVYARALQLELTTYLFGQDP
Chain of 5-HT2 receptors (P14842 whole entry): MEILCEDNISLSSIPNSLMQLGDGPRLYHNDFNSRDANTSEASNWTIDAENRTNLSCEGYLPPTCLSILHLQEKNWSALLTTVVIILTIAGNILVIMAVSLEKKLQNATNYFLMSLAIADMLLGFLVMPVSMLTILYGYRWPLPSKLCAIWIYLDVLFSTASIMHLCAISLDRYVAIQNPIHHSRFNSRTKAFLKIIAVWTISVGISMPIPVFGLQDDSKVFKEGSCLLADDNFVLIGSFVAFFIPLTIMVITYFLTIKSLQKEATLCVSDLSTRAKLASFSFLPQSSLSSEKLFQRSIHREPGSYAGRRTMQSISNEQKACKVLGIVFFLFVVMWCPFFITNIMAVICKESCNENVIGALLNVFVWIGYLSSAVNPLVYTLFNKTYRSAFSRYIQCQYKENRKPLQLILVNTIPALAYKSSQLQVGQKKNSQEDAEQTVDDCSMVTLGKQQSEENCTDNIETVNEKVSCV
T3 sequence (P61169 whole entry): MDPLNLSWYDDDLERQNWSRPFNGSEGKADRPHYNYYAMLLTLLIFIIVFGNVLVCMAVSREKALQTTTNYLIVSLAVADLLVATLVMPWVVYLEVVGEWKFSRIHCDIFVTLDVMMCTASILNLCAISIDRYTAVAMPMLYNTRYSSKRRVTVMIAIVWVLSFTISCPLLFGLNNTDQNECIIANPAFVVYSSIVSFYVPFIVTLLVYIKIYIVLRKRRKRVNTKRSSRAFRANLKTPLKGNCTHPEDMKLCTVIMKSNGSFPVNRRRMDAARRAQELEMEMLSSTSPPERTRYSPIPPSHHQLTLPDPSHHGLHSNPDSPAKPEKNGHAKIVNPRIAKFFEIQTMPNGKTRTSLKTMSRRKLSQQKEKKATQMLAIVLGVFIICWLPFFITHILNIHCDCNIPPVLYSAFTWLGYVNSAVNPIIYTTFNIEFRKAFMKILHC

As for `Fc1ccc(C(OCCN2CCN(CCCc3ccccc3)CC2)c2ccc(F)cc2)cc1` [GBR 12909, reference compound], the Ki at σ2 sites (setting [8]) was 133 ± 37 nM; at σ1 receptors [1] (setting [8]), 132 ± 31 nM.

Regarding `O=C(Cc1ccc([N+](=O)[O-])cc1)N1CCN(CCCc2ccccc2)CC1` [YZ-155-2], the Ki at σ2 sites (setting [9]) worked out at 167 ± 4 nM; at σ2 sites (setting [10]), 167 ± 4 nM; on σ1 receptors [1] (setting [11]) it was 14 ± 1 nM; on σ1 receptors [1] (setting [12]), 14 ± 1 nM.

Regarding `OC(CCCN1CCN(c2ncc(F)cn2)CC1)c1ccc(F)cc1` (centres unmarked) [BMY14802, reference compound], the Ki on σ2 sites (setting [9]) is 51 ± 8 nM.

Take `COc1ccc(CCN2CCN(CCCc3ccccc3)CC2)cc1` [YZ-067-2]: the Ki on σ2 sites (setting [9]) came out at 29 ± 2 nM; at σ2 sites (setting [10]) it was 29 ± 2 nM; on σ1 receptors [1] (setting [11]), 1 ± 0.3 nM; at σ1 receptors [1] (setting [12]) it was 1 ± 0.3 nM.

For the molecule `COc1ccc(CC(=O)N(C)CCN2CCCC2)cc1` [YZ-007], the IC50 (at Dopamine (D2) receptors; in data set [2]; at 5-HT2 receptors) was over 10 µM each time. Moreover, the Ki on σ2 sites (setting [9]) was 1220 ± 95 nM; at σ1 receptors [1] (setting [11]), 2220 ± 61 nM.

For `COc1ccccc1CCN1CCN(CCCc2ccccc2)CC1` [YZ-184-2], the Ki on σ2 sites (setting [9]) and on σ2 sites (setting [10]) was 8 ± 0.2 nM in each case.

For `COc1ccc(CC(=O)N2CCN(CCCc3ccccc3)CC2)cc1` [YZ-051-2], the Ki at σ2 sites (setting [9]) came to 464 ± 34 nM; on σ2 sites (setting [10]), 464 ± 34 nM; at σ1 receptors [1] (setting [11]), 13 ± 2 nM; on σ1 receptors [1] (setting [12]), 13 ± 2 nM.

Regarding `CC(C)=CCN1CCC2(C)c3cc(O)ccc3CC1C2C` (single isomer, unassigned; (+)) [(+)-Pentazocine, reference compound], in the data set on rat red nucleus, the “agonist versus antagonist designation (dystonic head postures)” value is given as “agonists”.

As to `COc1cccc(CCN2CCN(C(=O)Cc3cccc(OC)c3)CC2)c1` [YZ-085-2], the Ki on σ2 sites (setting [9]) and on σ2 sites (setting [10]) was 12 ± 2 nM each time.

In the case of `CCCN(CCc1ccc(Cl)c(Cl)c1)CCN1CCCCC1` [BD1069], the IC50 (at Dopamine (D2) receptors; in [2]; at 5-HT2 receptors) was over 10 µM throughout. Further, in the data set with rat red nucleus, the “agonist versus antagonist designation (dystonic head postures)” value is given as “variable, partial agonist actions”. Further, the values for the Ki at σ2 sites (setting [9]) and on σ1 receptors [1] were 545 ± 139 nM and 1 ± 0.2 nM, respectively.

With `CN(CCc1ccccc1N)CCN1CCCC1` [YZ-032], the IC50 (on Dopamine (D2) receptors; in data set [2]; on 5-HT2 receptors) was over 10 µM in each case. For the same molecule, the Ki worked out at 640 ± 25 nM at σ2 sites (setting [9]) and 291 ± 38 nM at σ1 receptors [1] (setting [11]).

On to `CN(CCc1ccc(N)cc1)CCN1CCCC1` [YZ-030], for which the IC50 (at Dopamine (D2) receptors; in [2]; on 5-HT2 receptors) was over 10 µM in each case. Moreover, the figures for the Ki on σ2 sites (setting [9]) and on σ1 receptors [1] (setting [11]) were 973 ± 77 nM and 276 ± 13 nM, respectively.

Consider “5′-CCCACGGCATCCCAGCGG-3′ (all phosphorothioate, sugars by position and methylation of C not given here) [McGill antisense, 18-mer phosphorothioate antisense oligodeoxynucleotide targeting the 5′-end of the σ1 receptor (Kitaichi et al., 1997)]”, for which the basal locomotor activity result in the data set with σ1 receptors [3] was “no effects on basal locomotor activity”. Also, in the data set with σ1 receptors [4] (McGill, 10 nmol/5 μl i.c.v. every 12 hours, four times, cocaine 10 mg/kg i.p.), the “effect on locomotor stimulatory effects of cocaine” value is recorded as “attenuates the locomotor stimulatory effects of cocaine”. Moreover, the “effect on cocaine-induced convulsions” value in the data set with σ1 receptors [5] (McGill, 10 nmol/5 μl i.c.v. every 12 hours, four times, cocaine 60 mg/kg i.p. 12 hours after last) was “significant attenuation of cocaine-induced convulsions”.

Take `CN(CCc1ccccc1[N+](=O)[O-])CCN1CCCC1` [YZ-028]: the IC50 (on Dopamine (D2) receptors; in [2]; on 5-HT2 receptors) was over 10 µM in each case. For the same molecule, the Ki at σ2 sites (setting [9]) turned out to be 311 ± 4 nM; at σ1 receptors [1] (setting [11]) it was 8 ± 0.9 nM.

As for `Clc1ccc(CCN2CCN(CCCc3ccccc3)CC2)cc1Cl` [YZ-069-2], the Ki was 39 ± 2 nM on σ2 sites (setting [9]), 39 ± 2 nM at σ2 sites (setting [10]), 2 ± 0.2 nM at σ1 receptors [1] (setting [11]) and 2 ± 0.2 nM on σ1 receptors [1] (setting [12]).

Take `CN(CCc1cccc([N+](=O)[O-])c1)CCN1CCCC1` [YZ-027]: the IC50 (on Dopamine (D2) receptors; in [2]; on 5-HT2 receptors) was over 10 µM throughout. The “baseline horizontal locomotor activity versus saline” value in the data set on Male, Swiss Webster mice [6] is “no significant difference”. Moreover, the Ki at σ2 sites (setting [9]) is 95 ± 0.7 nM; on σ1 receptors [1] (setting [11]), 6 ± 2 nM. For the same molecule, in the data set with Male, Swiss Webster mice [7], the “cocaine stimulated locomotor activity after pre-treatment” value was “significant reduction in cocaine stimulated locomotor activity”.

Regarding `CN(CCc1ccc([N+](=O)[O-])cc1)CCN1CCCC1` [YZ-029], the IC50 (on Dopamine (D2) receptors; in data set [2]; on 5-HT2 receptors) was over 10 µM each time. In addition, in the data set with Male, Swiss Webster mice [6], the “baseline horizontal locomotor activity versus saline” value was “no significant difference”. Further, the values for the Ki on σ2 sites (setting [9]) and at σ1 receptors [1] (setting [11]) were 63 ± 0.1 nM and 4 ± 0.9 nM, respectively. In the data set with Male, Swiss Webster mice [7], the “cocaine stimulated locomotor activity after pre-treatment” value is reported as “significant reduction in cocaine stimulated locomotor activity”.

Take `CN(CCc1cccc(N)c1)CCN1CCCC1` [YZ-033]: the IC50 (on Dopamine (D2) receptors; in data set [2]; at 5-HT2 receptors) was over 10 µM each time. Also, the Ki at σ2 sites (setting [9]) was 2240 ± 260 nM; at σ1 receptors [1] (setting [11]), 579 ± 35 nM.

As to `Nc1ccccc1CCN1CCN(CCCc2ccccc2)CC1` [YZ-165-2-2], the Ki at σ2 sites (setting [9]) was found to be 18 ± 0.2 nM; at σ2 sites (setting [10]), 18 ± 0.2 nM; on σ1 receptors [1] (setting [11]) it was 5 ± 0.1 nM; at σ1 receptors [1] (setting [12]) it was 5 ± 0.1 nM.

Turning to `COc1ccccc1CC(=O)N(C)CCN1CCCC1` [YZ-008], the IC50 (on Dopamine (D2) receptors; in data set [2]; on 5-HT2 receptors) was over 10 µM each time. For the same molecule, on σ2 sites (setting [9]), the Ki turned out to be 3170 ± 144 nM.

For the molecule `NCCN1CCN(CCCc2ccccc2)CC1` [YZ-136-2], the Ki stood at 188 ± 13 nM on σ2 sites (setting [9]), 188 ± 13 nM at σ2 sites (setting [10]), 3 ± 0.09 nM on σ1 receptors [1] (setting [11]) and 3 ± 0.09 nM on σ1 receptors [1] (setting [12]).

As for `COc1cccc(CC(=O)N(C)CCN2CCCC2)c1` [YZ-005], the IC50 (on Dopamine (D2) receptors; in data set [2]; on 5-HT2 receptors) was over 10 µM throughout. Moreover, the Ki on σ2 sites (setting [9]) worked out at 1110 ± 55 nM; at σ1 receptors [1] (setting [11]), 3101 ± 20 nM.

Take “5′-GAGGTCCCGACCACACACAGG-3′ (all phosphorothioate, sugars by position and methylation of C not given here) [mismatch]”: the “effect on cocaine-induced convulsions” value with σ1 receptors [5] (setting [13]) is reported as “responses no different from the saline-treated animals”.

As to `C[C@@H]1CN(CCCn2c3ccccc3c3ccccc32)C[C@H](C)N1` [Rimcazole, reference compound], at σ2 sites (setting [9]), the Ki amounted to 1160 ± 160 nM.

Turning to `COc1ccccc1CC(=O)N1CCN(CCCc2ccccc2)CC1` [YZ-048-2], the Ki at σ2 sites (setting [9]) amounted to 294 ± 10 nM; on σ2 sites (setting [10]), 294 ± 10 nM; at σ1 receptors [1] (setting [11]), 56 ± 8 nM; at σ1 receptors [1] (setting [12]) it was 56 ± 8 nM.

On to “5′-GAGTGCCCAGCCACAACCAGG-3′ (all phosphorothioate, sugars by position and methylation of C not given here) [NYU antisense, 21-mer phosphorothioate antisense oligodeoxynucleotide against mouse σ1 receptors (King et al., 1997)]”, for which the basal locomotor activity result in the data set with σ1 receptors [3] is reported as “no effects on basal locomotor activity”. Further, the “effect on locomotor stimulatory effects of cocaine” value in the data set on σ1 receptors [4] (NYU, 10 μg/5 μl i.c.v. on Days 1, 2 and 4, cocaine 10 mg/kg i.p. on Day 5) is given as “attenuates the locomotor stimulatory effects of cocaine”. For the same molecule, in the data set with σ1 receptors [5] (setting [13]), the “effect on cocaine-induced convulsions” value was “protected against the convulsive effects of cocaine”.
